Experimental data: patent US20130190345A1, “MATRINIC ACID/MATRINE DERIVATIVES AND PREPARATION METHODS AND USES THEREOF” (priority 2010, published 2013)
Converted amounts (≈) assume the structure as drawn.

Tests used:
Type in all cases: cell-based
2.2.15 cells = test: Drug TC50 by MTT detection; details: Reed-Muench
Description: 2.2.15 cells (all cells were purchased from Vertex Pharmaceutical Co., USA) in exponential growth phase were inoculated on 96-well culture plate, 2×10^5 cells/well, added with culture media containing PFA diluted in different concentration rates, 3 wells for each diluted concentration, placed in 37° C. CO2—containing incubator and cultivated for 48 h; the supernatant was discarded, 100 μl of MTT (0.5 mg/ml) in culture medium was added, cultivation was continuously performed at 37° C. for 4 h; each well was added to 100 μl of 50% DMF-20% SDS destaining solution, stood at 37° C. overnight; ELISA was used to measure optical density at wavelength of 570 nm (0D570).
In each experiment, 3 cell control wells and 3 blank controls well were set, the results were used in formula, (cell control OD570-drug-medicated cell OD570)/cell control OD570, to calculate cell death rate (%), and Reed-Muench method was used to calculate half toxic concentration TC50.

HCV = test: Inhibition effects of compounds on HCV in Huh7.5 cultured cell after HCV infection; details: for EC50 (half effective concentration): virus not given, stands beside HCV inhibition rate
Description: 1×10^5/ml Huh7.5 cells (purchased from Vertex Pharmaceutical Co., USA) were inoculated in an amount of 0.1 ml on 96-well culture plate, placed in an incubator with 37° C., 5% CO2 content and saturation humidity, and cultured for 24 h, HCV virus in 45 IU/cell was used to infect Huh7.5, different drug solutions (DM122) formulated with culture medium were added, and cell control and HCV infection control were set. Cultivation was continuously performed in the incubator with 37° C., 5% CO2 content and saturation humidity for 72 h, kit for RNA extraction was used to extract intracellular RNA, one-step qRT-PCR was used to determine intracellular contents of HCV and GAPDH RNA, and the inhibition effects of drug on HCV infection was analyzed. […] In comparison with the virus control group, the inhibition effects on HCV infection upon action of different drugs were analyzed. […] This experiment was repeated for 3 times, * indicated […] in comparison with control, ** indicated p<0.01 in comparison with control.

Hsc70 [1] = test: Inhibition effects of compound on Hsc70 in Huh7.5 cultured cell (qRT-PCR, Western blotting); parameters: key to Hsc70 down-regulation rate (%): “—” represents no significant inhibition rate
Description: 2×10^5/ml Huh7.5 cells (purchased from Vertex Pharmaceutical Co., USA) were inoculated in an amount of 3 ml on 6-well culture plate, placed in an incubator with 37° C., 5% CO2 content, saturation humidity, and cultured for 24 h, added with different drug solutions (DM122) formulated with culture medium, and cell control was set. Cultivation was continuously performed in the incubator with 37° C., 5% CO2 content, saturation humidity for 24 h, a kit for RNA extraction was used to extract intracellular RNA from the cells, and one-step qRT-PCR was used to determine intracellular contents of Hsc70 and GAPDHRNA. After the cultivation of cells was performed for 48 h, the cells were digested and harvested, then the cells were split with CytoBuster™ Protein Extraction Buffer that contained many kinds of protease inhibitors, total intracellular proteins were extracted, and Western blotting was used to analyze the contents of Hsc70 and GAPDH proteins. In comparison with the cell control, the inhibition effects on Hsc70 upon action of different drugs were analyzed.

Hsc70 [2] = test: Detection of Hsc70 gene expression level upon action of compound on 2.2.15 cells (real-time fluorescent quantified PCR); parameters: Hsc70 mRNA / Hsc70 down-regulation rate (%): unit not given here; details: for Hsc70 inhibition rate (down-regulation of Hsc70 expression activity, expressed in relative OMT ratio): 2.2.15 cells, relative to OMT (= 1); for Hsc70 down-regulation rate (%): single value, concentration not given, values coincide with Table 1 relative OMT ratios
Description: 2.2.15 cells (purchased from Vertex Pharmaceutical Co., USA) in a number of 1×10^6 were inocubated to 6-well plate, cultured in a culture medium containing 10% fetal calf serum for 24 hr, the original culture medium was discarded, replaced with a culutre medium containing 400 μg/ml OMTR, which was used as control. Compounds were firstly dissolved in MEM to form 20 mg/ml mother liquid, which was diluted with culture medium when used and then applied to cells. The compounds of Examples 1-114 were separately used for treatment for 12, 24, 36 hr, then cells were harvested for extraction of RNA and DNA, then the changes of Hsc70 mRNA and HBV DNA were detected by real-time fluorescent quantified PCR.

Row | Compound | CC50 (concentration to cause poisoning in half cells) (2.2.15 cells) | EC50 (half effective concentration) (HCV) | Hsc70 down-regulation rate (%) (Hsc70 [1]; 200 ug/ml (upper data)) | Hsc70 down-regulation rate (%) (Hsc70 [1]; 400 ug/ml (lower data)) | Hsc70 inhibition rate (down-regulation of Hsc70 expression activity, expressed in relative OMT ratio) (Hsc70 [2]) | HCV inhibition rate (%) (HCV; 400 ug/ml (lower data)) | Hsc70 down-regulation rate (%) (Hsc70 [2]) | HCV inhibition rate (%) (HCV; 200 ug/ml (upper data))
1 | O=C(O)CCCC1C2CCCN3CCCC(CN1C(=O)c1ccc(F)cc1)C23 (centres unmarked) [DM-154, N-(4-fluorobenzoyl) matrinic acid] | >1000 µg/mL | >333.33 µg/mL |  |  |  |  |  | 
2 | O=C(O)CCC[C@@H]1[C@H]2CCCN3CCC[C@@H](CN1C(=O)c1cccc([N+](=O)[O-])c1)[C@@H]23 [DM-121, N-(3-nitrobenzoyl) matrinic acid] |  |  | — | — | 0.23 | 14.9 ± 9.0% |  | 
3 | N#Cc1ccc(CN2C[C@@H]3CCCN4CCC[C@@H]([C@H]34)[C@H]2CCCC(=O)O)cc1 [DM-134, N-(4-cyanobenzyl) matrinic acid] | >1000 µg/mL | 52.18 µg/mL (≈ 137 µM) |  |  | 0.57 |  | 0.57 | 
4 | O=C(O)CCC[C@@H]1[C@H]2CCCN3CCC[C@@H](CN1C(=O)c1ccc(C(F)(F)F)cc1)[C@@H]23 [DM-155, N-(4-trifluoromethylbenzoyl) matrinic acid] | >1000 µg/mL | >333.33 µg/mL |  |  |  |  |  | 
5 | O=C(O)CCCC1C2CCCN3CCCC(CN1Cc1ccccn1)C23 (centres unmarked) [DM-143, N-(pyridin-2-yl) methyl matrinic acid] | 374.5 µg/mL (≈ 1050 µM) | 12.46 µg/mL (≈ 34.9 µM) |  |  | 1.1 |  | 1.1 | 
6 | O=C(O)CCCC1C2CCCN3CCCC(CN1Cc1cccnc1)C23 (centres unmarked) [DM-144, N-(pyridin-3-yl) methyl matrinic acid] | >1000 µg/mL | 31.8 µg/mL (≈ 89 µM) |  |  |  |  |  | 
7 | O=C(O)CCCC1C2CCCN3CCCC(CN1Cc1cccc4ccccc14)C23 (centres unmarked) [DM-148, N-(naphthyl-1-yl) methyl matrinic acid] | 529.86 µg/mL (≈ 1300 µM) | >333.3 µg/mL |  |  |  |  |  | 
8 | O=C(O)CCCC1C2CCCN3CCCC(CN1Cc1ccncc1)C23 (centres unmarked) [DM-145, N-(pyridin-4-yl)methyl matrinic acid] | >1000 µg/mL | 117.2 µg/mL (≈ 328 µM) |  |  |  |  |  | 
9 | O=C(O)CCCC1C2CCCN3CCCC(CN1C(=O)c1cccc([N+](=O)[O-])c1)C23 [Compound L9, (5R)—N-(3-nitrobenzoyl)matrinic acid] |  |  | 20.1 ± 11.1% | — |  | 68.9 ± 3.8% |  | 62.5 ± 0.3%
10 | N#Cc1cccc(S(=O)(=O)N2CC3CCCN4CCCC(C34)C2CC=CC(=O)O)c1 (centres unmarked) [SC-89b, N-(m-cyanobenzenesulfonyl) sophocarpinic acid] | 123.08 µg/mL (≈ 287 µM) | 3.98 µg/mL (≈ 9.27 µM) |  |  |  |  |  | 
11 | O=C(O)CCCC1C2CCCN3CCCC(CN1Cc1cccc(Cl)c1Cl)C23 (centres unmarked) [DM-129, N-(2,3-dichlorobenzyl) matrinic acid] | 245.5 µg/mL (≈ 577 µM) | 192.02 µg/mL (≈ 451 µM) |  |  | 0.27 |  | 0.27 | 
12 | Cc1ccc([N+](=O)[O-])cc1C(=O)N1C[C@H]2CCCN3CCC[C@@H]([C@H]23)[C@H]1CCCC(=O)O [Compound L2, (5R)—N-(2-methyl-5-nitrobenzoyl)matrinic acid] |  |  | 76.6 ± 2.5% | 32.7 ± 5.0% |  | 5.3 ± 5.1% |  | 27.9 ± 16.3%
13 | Cc1ccc(C(=O)N2C[C@@H]3CCCN4CCC[C@@H]([C@H]34)[C@H]2CCCC(=O)O)cc1 [DM-153, N-(4-methylbenzoyl) matrinic acid] |  |  | 38.6 ± 15.8% | 32.6 ± 14. % |  | 29.2 ± 29.5% |  | 47.8 ± 9.4%
14 | N-(4-ethenyl benzyl) matrinic acid [DM-136] | 70.49 µg/mL | 1.80 µg/mL |  |  | 0.76 |  | 0.76 | 
15 | COc1ccc(C(=O)N2CC3CCCN4CCCC(C34)C2CCCC(=O)O)cc1 (centres unmarked) [DM-151, N-(4-methoxybenzoyl) matrinic acid] |  |  | — | 11.5 ± 2.4% |  | 53.4 ± 5.6% |  | 20.5 ± 3.2%
16 | O=C(O)CCCC1C2CCCN3CCCC(CN1Cc1ccc(Br)cc1)C23 (centres unmarked) [DM-128, N-(4-bromobenzyl) matrinic acid] | 535.1 µg/mL (≈ 1230 µM) | 51.66 µg/mL (≈ 119 µM) |  |  | −5.78 |  | −5.78 | 
17 | O=C(O)CCCC1C2CCCN3CCCC(CN1Cc1ccc(Cl)cc1)C23 (centres unmarked) [DM-126, N-(4-chlorobenzyl) matrinic acid] | >1000 µg/mL | 21.11 µg/mL (≈ 54 µM) |  |  | 0.62 |  | 0.62 | 
18 | COc1ccc(C(=O)N2CC3CCCN4CCCC(C34)C2CCCC(=O)O)cc1 [Compound L11, (5R)—N-(p-methoxybenzoyl)matrinic acid] |  |  | 31.4 ± 12.2% | — |  | 61.6 ± 3.9% |  | 46.7 ± 12.7%
19 | O=C(O)CCCC1C2CCCN3CCCC(CN1Cc1cccc(Cl)c1)C23 (centres unmarked) [DM-125, N-(3-chlorobenzyl) matrinic acid] | >1000 µg/mL | 34.35 µg/mL (≈ 87.9 µM) |  |  | <10 |  | −67.97 | 
20 | N#Cc1ccc(C(=O)N2CC3CCCN4CCCC(C34)C2CCCC(=O)O)cc1 (centres unmarked) [DM-152, N-(4-cyanobenzoyl) matrinic acid] | >1000 µg/mL | 125.65 µg/mL (≈ 318 µM) |  |  |  |  |  | 
21 | O=C(O)C=CCC1C2CCCN3CCCC(CN1S(=O)(=O)c1ccc(C(F)(F)F)cc1)C23 (centres unmarked) [SC-84a, N-(p-trifluoromethylbenzene sulfonyl) sophocarpinic acid] | 530.07 µg/mL (≈ 1120 µM) | 7.54 µg/mL (≈ 16 µM) |  |  |  |  |  | 
